# Reference: US9814776B2, “Pharmaceutical preparation comprising aminopyrazole derivative” (Chugai Seiyaku Kabushiki Kaisha, priority 2013, dated 2017)
# Assay: Solubility of Compound 1 malate after 24 hours in Dissolution Test Solution 1 of the Japanese Pharmacopoeia with 5% surfactant
# Format: physicochemical
# Conditions: thermodynamic from solid
# Experimental: The surfactants shown in Table 3 and Dissolution Test Solution 1 of the Japanese Pharmacopoeia were used, and the concentration of each surfactant was adjusted to 5%. Compound 1 malate was sufficiently added thereto, the mixture was stirred, and the solubility after 24 hours was measured.
structure (smiles),measurement,setting,value
"Cc1nc2cc(-n3ncc(C(=O)c4cc5ccccc5[nH]4)c3N)ccc2[nH]1 [Compound 1, [5-amino-1-(2-methyl-3H-benzimidazol-5-yl)-1H-pyrazol-4-yl]-(1H-indol-2-yl)-methanone]",solubility at 24 h,"pH 1.2, aqueous with cosolvent or surfactant or cyclodextrin, 5% Polyoxyethylene (10) octylphenyl ether",145 µg/mL
same,solubility at 24 h,"pH 1.2, aqueous with cosolvent or surfactant or cyclodextrin, 5% Polysorbate 80",138 µg/mL
same,solubility at 24 h,"pH 1.2, aqueous with cosolvent or surfactant or cyclodextrin, 5% Sodium lauryl sulfate",136 µg/mL
same,solubility at 24 h,"pH 1.2, simulated gastric fluid, no surfactant",18.5 µg/mL
